Assay results as given in EP0565593B1, “REDUCING PESTICIDAL INTERACTIONS IN CROPS” (priority 1990, dated 1992).
Where “and” joins values, the source holds several entries; their conditions need not be identical. Identical values can stand only once.

Legend:
Corn [1] = assay: Greenhouse test Procedure II: herbicide, insecticide and antidote incorporated in cover layer (Example 4; Table 4); format: in vivo; conditions: 3 weeks
Summary of the method: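 Herbicide, insecticide and antidote in acetone were track-sprayed sequentially onto a soil cover layer, incorporated and spread over seeded beds in silt loam. Initial overhead irrigation equal to 0.6 cm rainfall, then sub-irrigation in the greenhouse. Injury was rated 3 weeks after treatment against untreated and herbicide-only controls.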

Velvetleaf (VELE) = assay: whole plant or invertebrate; format: in vivo, Abutilon theophrasti; conditions: for inhibition at 140 g/ha: Abutilon theophrasti, iv, 312 h
Corn [2] = assay: Multi-crop greenhouse test, soil-applied (Examples 65, 66; Tables 64, 65); format: in vivo; design: inhibition: dose or concentration left out as unconfirmed; conditions: Zea mays; for inhibition at 18 g/ha: Herb. No. 1 0.018 Kg/Ha alone; for inhibition at 70 g/ha: Herb. No. 1 0.07 Kg/Ha alone; for inhibition at 280 g/ha: Herb. No. 1 0.28 Kg/Ha alone
Procedure: (§1) Tests according to this invention in various crops indicate widespread application of the invention. In Examples 62-66 below are described tests with a variety of herbicides contacted with COUNTER® 15G in the presence and absence of MON-7400 (Antidote No. 12); MON-13900 (No. 1); MON-4660 (No. 16) and flurazole (No. 16). Those tests were conducted according to Procedures IV or V described above and illustrated further in other foregoing examples. Plants used in all tests were, for crops (as abbreviated in parentheses); cotton (COTT); soybean (SOBE); CORN, grain sorghum (GRSO); wheat (WHEA) and RICE, and the weeds giant foxtail (GIFT) and velvetleaf (VELE). The data in the tables below represent averages of two replications.
(§2) In this test the crops and weeds were planted 1.3 cm deep in 13.7 cm X 27.7 cm pans containing Dupo silt loam soil. The test safeners were applied in acetone solution and COUNTER 15G as dry granules to soil cover layers and incorporated by shaking in a bag. Treated cover layers were placed on seeded pans which were transferred to greenhouse benches and subirrigated. Herbicide was applied POE six (6) days after PPI initiation and observations of plant injury made ten (10) days later; results are shown in Table 61. The herbicide used in this example was BEACON (No. 8).
(§3) In another test in the several crops and weeds used in this test series, the herbicidal component was MON-12000 (No. 1); the other components were the same. the procedure used in this test was the same as that described in Example 62, modified to use a light overhead irrigation (about 0.32 cm/day) during days 4-7 of the test. Table 64 […]

Giant foxtail (GIFT) = assay: as above; format: in vivo; design: inhibition: dose or concentration left out as unconfirmed; conditions: Setaria faberi; for inhibition at 18 g/ha: Herb. No. 1 0.018 Kg/Ha alone; for inhibition at 70 g/ha: Herb. No. 1 0.07 Kg/Ha alone; for inhibition at 280 g/ha: Herb. No. 1 0.28 Kg/Ha alone
Procedure: as §1, §2, §3

RICE = assay: as above; format: in vivo; design: inhibition: dose or concentration left out as unconfirmed; conditions: Oryza sativa; for inhibition at 18 g/ha: Herb. No. 1 0.018 Kg/Ha alone; for inhibition at 70 g/ha: Herb. No. 1 0.07 Kg/Ha alone; for inhibition at 280 g/ha: Herb. No. 1 0.28 Kg/Ha alone
Procedure: as §1, §2, §3

grain sorghum (GRSO) = assay: as above; format: in vivo; design: inhibition: dose or concentration left out as unconfirmed; conditions: Sorghum; for inhibition at 18 g/ha: Herb. No. 1 0.018 Kg/Ha alone; for inhibition at 70 g/ha: Herb. No. 1 0.07 Kg/Ha alone; for inhibition at 280 g/ha: Herb. No. 1 0.28 Kg/Ha alone
Procedure: as §1, §2, §3

soybean (SOBE) = assay: as above; format: in vivo; design: inhibition: dose or concentration left out as unconfirmed; conditions: Glycine max; for inhibition at 18 g/ha: Herb. No. 1 0.018 Kg/Ha alone; for inhibition at 70 g/ha: Herb. No. 1 0.07 Kg/Ha alone; for inhibition at 280 g/ha: Herb. No. 1 0.28 Kg/Ha alone
Procedure: as §1, §2, §3

wheat (WHEA) = assay: as above; format: in vivo; design: inhibition: dose or concentration left out as unconfirmed; conditions: Triticum aestivum; for inhibition at 18 g/ha: Herb. No. 1 0.018 Kg/Ha alone; for inhibition at 70 g/ha: Herb. No. 1 0.07 Kg/Ha alone; for inhibition at 280 g/ha: Herb. No. 1 0.28 Kg/Ha alone
Procedure: as §1, §2, §3

[3] = Table 64, Herb. No. 1 0.018 Kg/Ha + Biocide No. 1 8.96 Kg/Ha
[4] = Table 64, Herb. No. 1 0.07 Kg/Ha + Biocide No. 1 8.96 Kg/Ha
[5] = Table 64, Herb. No. 1 0.28 Kg/Ha + Biocide No. 1 8.96 Kg/Ha
[6] = Table 65, Herb. No. 1 0.018 Kg/Ha + Biocide No. 1 8.96 Kg/Ha
[7] = Table 65, Herb. No. 1 0.07 Kg/Ha + Biocide No. 1 8.96 Kg/Ha
[8] = Table 65, Herb. No. 1 0.28 Kg/Ha + Biocide No. 1 8.96 Kg/Ha

Which results are given for `COC(=O)c1c(Cl)nn(C)c1S(=O)(=O)NC(=O)Nc1nc(OC)cc(OC)n1` [Herbicide No. 1, N-[(4,6-dimethoxypyrimidin-2-yl)aminocarbonyl]-3-chloro-4-methoxycarbonyl-5-sulfonamide, reference compound]?
% Injury Corn (Corn [1]; Herbicide 1 0.07 kg/Ha): 2%; % Injury Corn (Corn [1]; Herbicide 1 0.14 kg/Ha): 13%; % Injury Corn (Corn [1]; Insecticide 2 3.36 + Herbicide 1 0.07 kg/Ha): 0%; % Injury Corn (Corn [1]; Insecticide 2 3.36 + Herbicide 1 0.14 kg/Ha): 38%; inhibition at 140 g/ha (Velvetleaf (VELE); Herb. No. 1 0.14 kg/Ha alone, PPI, 13 days after planting): 95%; inhibition at 140 g/ha (Velvetleaf (VELE); Table 51, Herbicide No. 1 0.14 Kg/Ha, where applied Biocide No. 8 8.96 kg/Ha and antidote 4.48 Kg/Ha, all PPI, observed 13 days after treatment): 85%; inhibition at 140 g/ha (Velvetleaf (VELE); Table 52, Herbicide No. 1 0.14 Kg/Ha, where applied Biocide No. 5 8.96 kg/Ha and antidote 4.48 Kg/Ha, all PPI, observed 13 days after treatment): 85%; % Inhibition VELE (Velvetleaf (VELE); Herbicide No. 1 0.0175 Kg/Ha PPI alone, Table 19): 85%; % Inhibition VELE (Velvetleaf (VELE); Herbicide No. 1 0.0175 Kg/Ha PPI alone, Table 20): 80%; % Inhibition VELE (Velvetleaf (VELE); Herbicide No. 1 0.0175 Kg/Ha PPI alone, Table 21): 80%; % Inhibition VELE (Velvetleaf (VELE); Herbicide No. 1 0.0175 Kg/Ha PPI alone, Table 22): 85%; % Inhibition VELE (Velvetleaf (VELE); in vivo): 95% and 90% and 80%; inhibition (Corn [2]; [3]): 0%; inhibition at 18 g/ha (Corn [2]; Table 64): 0%; inhibition (Corn [2]; [4]): 10%; inhibition at 70 g/ha (Corn [2]; Table 64): 0%; inhibition (Corn [2]; [5]): 60%; inhibition at 280 g/ha (Corn [2]; Table 64): 10%; inhibition (Corn [2]; [6]): 0%; inhibition at 18 g/ha (Corn [2]; Table 65): 0%; inhibition (Corn [2]; [7]): 0%; inhibition at 70 g/ha (Corn [2]; Table 65): 0%; inhibition (Corn [2]; [8]): 75%; inhibition at 280 g/ha (Corn [2]; Table 65): 10%; inhibition (Giant foxtail (GIFT); [3]): 70%; inhibition at 18 g/ha (Giant foxtail (GIFT); Table 64): 0%; inhibition (Giant foxtail (GIFT); [4]): 70%; inhibition at 70 g/ha (Giant foxtail (GIFT); Table 64): 20%; inhibition (Giant foxtail (GIFT); [5]): 85%; inhibition at 280 g/ha (Giant foxtail (GIFT); Table 64): 40%; inhibition (Giant foxtail (GIFT); [6]): 30%; inhibition at 18 g/ha (Giant foxtail (GIFT); Table 65): 20%; inhibition (Giant foxtail (GIFT); [7]): 65%; inhibition at 70 g/ha (Giant foxtail (GIFT); Table 65): 60%; inhibition (Giant foxtail (GIFT); [8]): 90%; inhibition at 280 g/ha (Giant foxtail (GIFT); Table 65): 70%; inhibition (RICE; [3]): 0%; inhibition at 18 g/ha (RICE; Table 64): 0%; inhibition (RICE; [4]): 10%; inhibition at 70 g/ha (RICE; Table 64): 0%; inhibition (RICE; [5]): 25%; inhibition at 280 g/ha (RICE; Table 64): 40%; inhibition (RICE; [6]): 0%; inhibition at 18 g/ha (RICE; Table 65): 0%; inhibition (RICE; [7]): 25%; inhibition at 70 g/ha (RICE; Table 65): 40%; inhibition (RICE; [8]): 90%; inhibition at 280 g/ha (RICE; Table 65): 60%; inhibition (grain sorghum (GRSO); [3]): 0%; inhibition at 18 g/ha (grain sorghum (GRSO); Table 64): 0%; inhibition (grain sorghum (GRSO); [4]): 15%; inhibition at 70 g/ha (grain sorghum (GRSO); Table 64): 0%; inhibition (grain sorghum (GRSO); [5]): 15%; inhibition at 280 g/ha (grain sorghum (GRSO); Table 64): 20%; inhibition (grain sorghum (GRSO); [6]): 15%; inhibition at 18 g/ha (grain sorghum (GRSO); Table 65): 0%; inhibition (grain sorghum (GRSO); [7]): 20%; inhibition at 70 g/ha (grain sorghum (GRSO); Table 65): 40%; inhibition (grain sorghum (GRSO); [8]): 85%; inhibition at 280 g/ha (grain sorghum (GRSO); Table 65): 80%; inhibition (soybean (SOBE); [3]): 5%; inhibition at 18 g/ha (soybean (SOBE); Table 64): 15%; inhibition (soybean (SOBE); [4]): 70%; inhibition at 70 g/ha (soybean (SOBE); Table 64): 45%; inhibition (soybean (SOBE); [5]): 75%; inhibition at 280 g/ha (soybean (SOBE); Table 64): 70%; inhibition (soybean (SOBE); [6]): 0%; inhibition at 18 g/ha (soybean (SOBE); Table 65): 0%; inhibition (soybean (SOBE); [7]): 0%; inhibition at 70 g/ha (soybean (SOBE); Table 65): 0%; inhibition (soybean (SOBE); [8]): 15%; inhibition at 280 g/ha (soybean (SOBE); Table 65): 20%; inhibition (wheat (WHEA); [3]): 0%; inhibition at 18 g/ha (wheat (WHEA); Table 64): 0%; inhibition (wheat (WHEA); [4]): 0%; inhibition at 70 g/ha (wheat (WHEA); Table 64): 0%; inhibition (wheat (WHEA); [5]): 35%; inhibition at 280 g/ha (wheat (WHEA); Table 64): 0%; inhibition (wheat (WHEA); [6]): 0%; inhibition at 18 g/ha (wheat (WHEA); Table 65): 0%; inhibition (wheat (WHEA); [7]): 0%; inhibition at 70 g/ha (wheat (WHEA); Table 65): 0%; inhibition (wheat (WHEA); [8]): 85%; inhibition at 280 g/ha (wheat (WHEA); Table 65): 0%
